Source: patent publication US20080167201A1, “Method For Synthesizing Derivative, Compound Library and Method For Constructing the Same, and Method For Screening” (priority 2004, published 2008)

Key:
[1] = tested on: EC17 cells derived from human esophageal cancer; test: cell migration inhibition, scratch assay with EC17 cells; type: cell-based; details: compound added immediately after scratching, 24 hr incubation, microscopic observation (FIG. 4)
Protocol: 500 μl of suspension of EC17 cells derived from human esophageal cancer (1.5×10^5 cells/ml; RPMI1640 medium (Nissui)) was added to each well of a 48-well plate and incubated at 37° C. for 24 hr. Then, the cells were linearly scraped off by scratching the center of the bottom of each well in a straight line with a micropipette tip. Then, the supernatant of the culture broth was immediately removed. The well was washed with 300 μl of PBS^− (8 g/l NaCl, 0.2 g/l KCl, 0.916 g/l Na2HPO4, 0.2 g/l KH2PO4) carefully not to scrape the remaining cells, and 500 μl of a RPMI1640 medium containing 1% serum (FBS; manufactured by Tissue Culture Biologicals) was gently added to the well. Further, migrastatin or oxidized migrastatin was added thereto and incubated at 37° C. for 24 hr. In addition, a culture broth to which migrastatin and oxidized migrastatin were not added was similarly incubated as a control. After the incubation, how much the straight line formed with the micropipette tip was filled with cells which had migrated from surroundings was confirmed by microscopic observation to evaluate migration of the cells.

[2] = tested on: HT-29 cells derived from human colon cancer; test: ATP synthesis (ATP content by luciferase luciferin) in HT-29 cells; type: cell-based; details: 3 hr incubation, same concentration range as inhibits cell migration (FIG. 5)
Protocol: 1 ml of suspension of HT-29 cells derived from human colon cancer (4×10^5 cells/ml; RPMI1640 medium) was added to each well of a 24-well plate and incubated at 37° C. for 24 hr. Then, migrastatin or oxidized migrastatin was added thereto and incubated for 3 hr. In addition, a cultured broth to which migrastatin and oxidized migrastatin were not added was similarly incubated as a control. After the incubation, each well was washed twice with ice-cooled PBS^−. After an addition of 200 μl of 2% trichloroacetic acid, the plate was left at 4° C. for 30 min. The supernatant (160 μl) was neutralized with 36.8 μl of 0.5 N NaOH and used as a sample. This sample (160 μl) was added to 3 ml of PBS^− containing 4 mM MgCl2. Then, 40 μl of 4 mg/ml luciferase luciferin (Sigma) was added thereto and immediately the ATP content was measured with a single-photon monitor of a scintillation counter (LS-5000TD: BECKMAN COULTER). In addition, the ATP content under the conditions where the sample and luciferase luciferin were not added was measured as a blank value and was subtracted from each measurement value.

| Structure (SMILES) | migration of cells ([1]; concentration of 30 μl/ml) | inhibition of migration of cells over the concentration range [1] | inhibition of ATP synthesis [2] |
| --- | --- | --- | --- |
| CO[C@H]1/C=C/CC/C=C/C(=O)O[C@H]([C@H](C)C(=O)CCCC2CC(=O)NC(=O)C2)/C(C)=C\[C@@H](C)[C@@H]1O [migrastatin] | completely inhibited | inhibited depending on the concentration of migrastatin | inhibited ATP synthesis |
| CO[C@H]1/C=C/CC/C=C/C(=O)O[C@H]([C@H](C)C(=O)CCCC2CC(=O)NC(=O)C2)/C(C)=C\[C@@H](C)C1=O [oxidized migrastatin, migrastatin oxide] | – | inhibition effect was observed at almost the same concentration range | did not inhibit ATP synthesis at all |
